# Laboratory results: patent publication US20240218066A1, “USE OF ANTI-PD-1 ANTIBODY IN COMBINATION WITH FIRST-LINE CHEMOTHERAPY IN TREATMENT OF ADVANCED NON-SMALL CELL LUNG CANCER” (SHANGHAI JUNSHI BIOSCIENCES CO., LTD., priority 2021, published 2024)
# Experiments:
# [1] = test system: patients with untreated advanced NSCLC; test: Phase III clinical study, safety analysis (SS population)
# Method: This is a randomized, double-blind, placebo-controlled, multicenter, phase III clinical study for assessing the efficacy and safety of toripalimab (JS001) or placebo in combination with first-line chemotherapy in patients with untreated advanced NSCLC and exploring the population with optimal biomarker prediction.
# Toripalimab 240 mg/placebo was administered by intravenous infusion once every three weeks (Q3W) in cycles of 21 days, with treatment continued until the patients met the discontinuation criteria, i.e., recorded progressive disease, unacceptable AEs, investigator-assessed unsuitability for continued treatment, withdrawal of informed consent, 2 years of JS001 treatment, or other reasons as specified in the protocol.
# The selection of cisplatin or carboplatin was at the discretion of the investigator.
# Safety analysis set (SS): including all patients who received at least one dose of the study drug (JS001/placebo/chemotherapeutic agent).
# Safety analysis was performed in SS and crossover treatment analysis sets, where safety data from the double-blind stage of the primary study and the crossover treatment stage were analyzed separately. Safety analyses include drug exposure, compliance, adverse events, laboratory examinations, vital signs, physical examinations, electrocardiogramaminations, ECOG scores, etc.
# All safety analyses were based on the SS population (464 patients), including 308 patients in the test group and 156 patients in the control group. […] The primary safety analysis results based on the SS population in the double-blind stage of the primary study are as follows:
# [2] = test system: patients with untreated advanced NSCLC; test: Phase III clinical study, overall survival (OS); type: in vivo, human
# Method: (§1) About 450 patients with advanced NSCLC not accompanied by EGFR-sensitive mutations and ALK fusions were randomly divided into two groups according to a 2:1 ratio, with the test group receiving toripalimab in combination with first-line standard chemotherapy and the control group receiving placebo in combination with first-line standard chemotherapy. Stratification was performed according to PD-L1 expression (TC≥1% vs TC<1%), smoking status (frequent smoking vs no smoking or little smoking), and pathological type (squamous cell carcinoma vs non-squamous cell carcinoma).
# (§2) After randomization, the patients were subjected to treatment in the induction stage for 4-6 cycles, during which the patients received toripalimab/placebo+first-line standard chemotherapy. After the induction stage was over, the patients were subjected to treatment in the maintenance stage, during which patients with squamous cell carcinoma continued to receive toripalimab/placebo treatment until progressive disease, and patients with non-squamous cell carcinoma continued to receive toripalimab/placebo+pemetrexed treatment until progressive disease.
# (§3) Unless otherwise specified, the efficacy analysis was based on the ITT set, which was analyzed by groups according to the treatment regimen to which patients were assigned at randomization.
# For analysis of secondary efficacy endpoints OS, DOR, and TTR, the method described above as applied to the primary efficacy endpoint PFS was used. For ORR and DCR, the percentage of patients in each treatment group was calculated, and their 95% confidence intervals were calculated using the Clopper-Pearson method. The nominal P values for inter-group comparison were calculated using the Cochran-Mantel-Haenszel method considering randomization stratification factors that were the same as the primary efficacy analysis, and the 95% CI for the inter-group rate differences was estimated.
# [3] = test system: patients with untreated advanced NSCLC; test: Phase III clinical study, efficacy assessed by the BIRC according to RECIST 1.1; type: in vivo, human; design: reduction of the risk of progression or death, compared to standard chemotherapy / increase of PFS rate at 6 months compared to control group / increase of PFS rate at 12 months compared to control group / increase in ORR compared to control group: concentration or dose not given beside the values
# Method: as §1, §2
# Tumor assessments were performed once every 6 weeks for the first 12 months of the study stage according to RECIST 1.1 and iRECIST; after 12 months, tumor assessments were performed every 9 weeks until progressive disease, initiation of a new anti-tumor therapy, intolerable toxicity, withdrawal of informed consent or death, 2 years of treatment with toripalimab, or other reasons as specified in the protocol, whichever occurred first.
# Eligible subjects must (1) be patients with histologically and/or cytologically confirmed locally advanced (stage IIIB or IIIC) and stage IV non-small cell lung cancer that is inoperable and cannot receive radical concurrent chemoradiotherapy; (2) have at least one measurable lesion (according to RECIST 1.1); (3) have not received any systemic treatment (patients with recurrence more than 6 months after completion of prior neoadjuvant/adjuvant therapy may also be enrolled); (4) be aged between 18 and 75 years; (5) have ECOG of 0-1; (6) have an expected survival of ≥3 months; and (7) be available to provide tissue specimens for PD-L1 testing.
# as §3
# The progression-free survival rate and median progression-free survival of the JS001+first-line standard treatment group and the placebo+first-line standard treatment group at different time points after the start of treatment were estimated by the Kaplan-Meier method, and Kaplan-Meier curves were plotted. The 95% confidence interval for progression-free survival rate at different time points (6 months and 1 year) was estimated using the Greenwood formula. The 95% confidence interval for median progression-free survival was estimated using the Brookmeyer-Crowley method where the log-log function conversion was used to reach normal approximation. Statistical test was performed on the inter-group difference by a stratified log-rank method for the total population. Statistical test was performed on the inter-group difference by a non-stratified log-rank method for the subpopulations. A stratified COX proportional hazards model was used to estimate the inter-group hazard ratio (HR) and the corresponding 95% confidence interval, and the tied events were processed by an exact method. Stratification analysis was performed using 3 stratification factors in the randomization process, including: (1) PD-L1 expression (TC≥1% vs TC<1%); (2) smoking status (frequent smoking vs no smoking or little smoking); and (3) pathological type (squamous cell carcinoma vs non-squamous cell carcinoma).
# For analysis of secondary efficacy endpoints OS, DOR, and TTR, the method described above as applied to the primary efficacy endpoint PFS was used. […]
# [4] = SS population, double-blind stage
# [5] = compared to placebo + chemotherapy
# [6] = patients with non-squamous cell carcinoma
# [7] = patients with squamous cell carcinoma
substance,measurement,setting,value
JS001 + standard first-line chemotherapy: toripalimab 240 mg Q3W plus albumin-bound paclitaxel+carboplatin (squamous) or pemetrexed+cisplatin/carboplatin (non-squamous),SAE: anemia,[1]; SS population,5.2%
same,SAE: bone marrow depression,[1]; SS population,1.0%
same,SAE: infectious pneumonia,[1]; SS population,4.9%
same,SAE: leukopenia,[1]; SS population,2.9%
same,SAE: neutropenia,[1]; SS population,5.5%
same,SAE: thrombocytopenia,[1]; SS population,6.8%
same,TEAE: anemia,[1]; SS population,88.3%
same,TEAE: anorexia,[1]; SS population,32.1%
same,TEAE: constipation,[1]; SS population,18.5%
same,TEAE: elevated aspartate aminotransferase,[1]; SS population,31.8%
same,TEAE: fatigue,[1]; SS population,33.4%
same,TEAE: fever,[1]; SS population,20.8%
same,TEAE: hypothyroidism,[1]; SS population,14.9%
same,TEAE: leukopenia,[1]; SS population,83.1%
same,TEAE: nausea,[1]; SS population,31.8%
same,TEAE: neutropenia,[1]; SS population,83.4%
same,TEAE: rash,[1]; SS population,20.1%
same,TEAE: thrombocytopenia,[1]; SS population,68.5%
same,proportion of SAEs judged by the investigator to be related to the treatment regimen,[1]; SS population,31.2%
same,proportion of SAEs occurring during treatment,[1]; SS population,38.6%
same,proportion of SAEs of grade 3 or higher judged by the investigator to be related to the treatment regimen,[1]; SS population,22.4%
same,proportion of TEAEs of grade 3 or higher as per CTCAE,[1]; SS population,76.3%
same,proportion of TEAEs of grade 3 or higher as per CTCAE judged by the investigator to be related to the treatment regimen,[1]; SS population,71.4%
same,proportion of patients who experienced at least 1 TEAE,[1]; [4],99.0%
same,proportion of patients who experienced at least 1 TEAE related to the treatment regimen,[1]; [4],98.1%
same,effect on chemotherapy-related toxicity (in words),[1]; [5],did not increase chemotherapy-related toxicity
same,effect on the incidence of adverse events of grade 3 or higher (in words),[1]; [5],did not increase the incidence of adverse events of grade 3 or higher
same,HR for OS (test vs control),[2]; ITT population,0.81
same,median OS,"[2]; ITT population, as of Mar. 11, 2021, OS data not mature",21.0 months
same,deaths reported,"[2]; as of Mar. 11, 2021, median follow-up 9.82 months",25.6%
same,HR for OS (test vs control),[2]; [6],0.56
same,HR for OS (test vs control),[2]; [7],1.23
same,median OS,[2]; [7],21.0 months
same,PFS rate at 6 months,[3]; ITT,65.3%
same,PFS rate at 12 months,[3]; ITT,38.9%
same,increase of PFS rate at 6 months compared to control group,[3]; ITT,16%
same,increase of PFS rate at 12 months compared to control group,[3]; ITT,22.7%
same,HR for PFS (test vs control),[3]; ITT population,0.61
same,"PFS prolonged by, compared to standard chemotherapy",[3]; ITT population,2.5 months
same,"reduction of the risk of progression or death, compared to standard chemotherapy",[3]; ITT population,39%
same,median PFS,"[3]; ITT population, RECIST 1.1",8.3 months
same,Best overall response: Complete response (CR),[3]; non-squamous cell carcinoma,3 (1.9) N (%)
same,Best overall response: Deletion,[3]; non-squamous cell carcinoma,8 (4.9) N (%)
same,Best overall response: Non-complete response/non-progressive disease (Non CR/Non PD),[3]; non-squamous cell carcinoma,0 N (%)
same,Best overall response: Not evaluable (NE),[3]; non-squamous cell carcinoma,0 N (%)
same,Best overall response: Partial response (PR),[3]; non-squamous cell carcinoma,94 (58.0) N (%)
same,Best overall response: Progressive disease (PD),[3]; non-squamous cell carcinoma,8 (4.9) N (%)
same,"Duration of response (DOR), Median (95% confidence interval)",[3]; non-squamous cell carcinoma,"NE (6.9, NE)"
same,Objective response rate (ORR),[3]; non-squamous cell carcinoma,97 (59.9) N (%)
same,DCR,[3]; overall population,90.9%
same,increase in ORR compared to control group,[3]; overall population,20.8%
same,ORR,"[3]; overall population, RECIST v1.1",65.7%
same,HR for PFS (test vs control),[3]; [6],0.55
same,ORR,[3]; [6],59.9%
same,increase in ORR compared to control group,[3]; [6],27.4%
same,median PFS,[3]; [6],10.3 months
same,HR for PFS (test vs control),[3]; [7],0.63
same,ORR,[3]; [7],72.1%
same,increase in ORR compared to control group,[3]; [7],13.3%
same,median PFS,[3]; [7],6.9 months
same,Best overall response: Complete response (CR),[3]; squamous cell carcinoma,0 N (%)
same,Best overall response: Deletion,[3]; squamous cell carcinoma,8 (5.4) N (%)
same,Best overall response: Non-complete response/non-progressive disease (Non CR/Non PD),[3]; squamous cell carcinoma,1 (0.7) N (%)
same,Best overall response: Not evaluable (NE),[3]; squamous cell carcinoma,0 N (%)
same,Best overall response: Partial response (PR),[3]; squamous cell carcinoma,106 (72.1) N (%)
same,Best overall response: Progressive disease (PD),[3]; squamous cell carcinoma,3 (2.0) N (%)
same,"Duration of response (DOR), Median (95% confidence interval)",[3]; squamous cell carcinoma,"5.7 (5.2, 9.5)"
same,Objective response rate (ORR),[3]; squamous cell carcinoma,106 (72.1) N (%)
